Patent US11542313B2, “Incretin analogs and uses thereof” (Eli Lilly and Company, priority 2017, dated 2023)
*1 amine or outer side, *2 acyl side, *3 side chain or, on linkers, in order; H or OH if unused. Where a SMILES comes first, the peptide text is derived from it. Side-chain parts run from the residue outwards. [ ]: non-standard residue; d: D form. The star is where a group is joined. C20 diacid = O=C(O)CCCCCCCCCCCCCCCCCCC(=O)*; γGlu = O=C(O)[C@H](CCC(=O)[*:2])N[*:1]; αMeL = CC(C)C[C@](C)(N)C(=O)O; AEEA = NCCOCCOCC(=O)O; Aib = CC(C)(N)C(=O)O

Tests used:
[1] = target: T1, human GIP receptor (GIPR) (Homo sapiens, UniProt P48546); assay: Radioligand competition binding (SPA), human GIPR membranes; details: HEK293 membranes, SPA, bacitracin present; mean; read-out: Ki, GIPR
T1 construct: expressed in transfected cells; host or cells: HEK293 (membranes)
T1 sequence (P48546 22-466): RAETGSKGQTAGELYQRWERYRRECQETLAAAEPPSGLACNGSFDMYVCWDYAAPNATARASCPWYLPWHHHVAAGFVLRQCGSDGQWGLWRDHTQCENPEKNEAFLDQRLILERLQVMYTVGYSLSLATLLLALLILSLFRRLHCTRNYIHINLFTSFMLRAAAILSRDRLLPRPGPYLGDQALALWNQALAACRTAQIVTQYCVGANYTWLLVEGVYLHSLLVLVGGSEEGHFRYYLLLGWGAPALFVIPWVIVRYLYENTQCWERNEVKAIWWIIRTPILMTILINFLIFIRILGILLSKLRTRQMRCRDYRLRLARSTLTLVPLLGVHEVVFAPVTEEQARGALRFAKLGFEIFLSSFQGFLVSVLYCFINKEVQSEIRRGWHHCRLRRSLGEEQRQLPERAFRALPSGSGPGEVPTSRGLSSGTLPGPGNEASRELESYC
Description: (§1) Radioligand competition binding assays are run to determine the equilibrium dissociation constant for exemplary compounds and comparator molecules.
(§2) Competition curves are plotted as the percent specific inhibition (y-axis) versus log concentration of compound (x-axis) and analyzed using a four parameter nonlinear regression fit with variable slope (ABase or Genedata).

[2] = target: T2, hGcgR (Homo sapiens, UniProt P47871); assay: cAMP assay in HEK293 cells expressing hGcgR, 0.1% casein; format: cell-based; details: in the presence of 0.1% casein; read-out: cAMP EC50, GcGR
T2 construct: expressed in transfected cells; host or cells: HEK293
T2 sequence (P47871 26-477): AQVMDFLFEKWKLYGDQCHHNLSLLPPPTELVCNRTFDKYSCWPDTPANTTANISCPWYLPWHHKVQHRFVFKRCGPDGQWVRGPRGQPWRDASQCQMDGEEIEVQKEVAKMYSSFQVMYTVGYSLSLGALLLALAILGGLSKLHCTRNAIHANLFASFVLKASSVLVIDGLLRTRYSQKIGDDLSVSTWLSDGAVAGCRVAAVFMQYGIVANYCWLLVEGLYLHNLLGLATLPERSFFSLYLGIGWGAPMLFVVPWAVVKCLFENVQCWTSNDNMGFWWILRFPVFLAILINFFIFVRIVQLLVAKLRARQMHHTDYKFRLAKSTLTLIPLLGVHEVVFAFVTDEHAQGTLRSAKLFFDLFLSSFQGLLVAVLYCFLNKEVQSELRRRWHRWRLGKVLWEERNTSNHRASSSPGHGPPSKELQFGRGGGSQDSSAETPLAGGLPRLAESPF

[3] = target: hGLP-1R (Homo sapiens, UniProt P43220); assay: cAMP assay in HEK293 cells expressing hGLP-1R, 0.1% casein; format: cell-based; details: in the presence of 0.1% casein; read-out: cAMP EC50, GLP-1R
hGLP-1R, sequence (P43220 24-463): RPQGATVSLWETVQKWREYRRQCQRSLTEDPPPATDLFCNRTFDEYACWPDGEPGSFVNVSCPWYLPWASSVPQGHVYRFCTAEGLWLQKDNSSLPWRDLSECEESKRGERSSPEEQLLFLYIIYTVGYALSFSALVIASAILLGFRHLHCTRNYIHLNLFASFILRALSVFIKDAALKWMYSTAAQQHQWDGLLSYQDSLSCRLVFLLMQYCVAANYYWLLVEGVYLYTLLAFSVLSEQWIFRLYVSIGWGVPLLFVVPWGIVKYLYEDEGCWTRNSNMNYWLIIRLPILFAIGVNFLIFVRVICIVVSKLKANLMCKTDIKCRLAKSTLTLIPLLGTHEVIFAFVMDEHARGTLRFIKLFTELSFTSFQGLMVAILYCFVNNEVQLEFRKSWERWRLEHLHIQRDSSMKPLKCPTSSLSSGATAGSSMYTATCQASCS

[4] = target: T3, human glucagon receptor (GcgR) (Homo sapiens, UniProt P47871); assay: Radioligand competition binding (SPA), human GcgR membranes; details: HEK293 membranes, SPA, bacitracin present; mean; read-out: Ki, GcgR
T3 construct: expressed in transfected cells; host or cells: HEK293 (membranes)
T3 sequence (P47871 26-477): as the sequence (P47871 26-477) above
Description: as §1, §2

[5] = target: T4, GLP-1 receptor (GLP-1R) (Homo sapiens, UniProt P43220); assay: Radioligand competition binding (SPA), human GLP-1R membranes; details: HEK293 membranes, SPA, bacitracin present; mean; read-out: Ki, GLP-1R
T4 construct: expressed in transfected cells; host or cells: HEK293 (membranes)
T4 sequence (P43220 24-463): as the sequence (P43220 24-463) above
Description: as §1, §2

[6] = target: T5, hGIPR (Homo sapiens, UniProt P48546); assay: cAMP assay in HEK293 cells expressing hGIPR, 0.1% casein; format: cell-based; details: in the presence of 0.1% casein; read-out: cAMP EC50, GIPR
T5 construct: expressed in transfected cells; host or cells: HEK293
T5 sequence (P48546 22-466): T1 sequence (P48546 22-466)

Structure (SMILES) | Ki [1] [nM] | EC50 [2] [nM] | EC50 [3] [nM] | Ki [4] [nM] | Ki [5] [nM] | EC50 [6] [nM]
CC[C@H](C)[C@H](NC(=O)[C@H](Cc1ccccc1)NC(=O)[C@H](C)NC(=O)[C@](C)(CCCCN)NC(=O)[C@H](CCC(N)=O)NC(=O)[C@H](C)NC(=O)[C@H](CCCCNC(=O)COCCOCCNC(=O)COCCOCCNC(=O)CC[C@H](NC(=O)CCCCCCCCCCCCCCCCCCC(=O)O)C(=O)O)NC(=O)[C@H](CCCCN)NC(=O)[C@H](CC(=O)O)NC(=O)[C@H](CC(C)C)NC(=O)[C@H](CC(C)C)NC(=O)[C@@H](NC(=O)[C@H](CO)NC(=O)[C@H](Cc1ccc(O)cc1)NC(=O)[C@H](CC(=O)O)NC(=O)[C@H](CO)NC(=O)[C@@H](NC(=O)[C@H](Cc1ccccc1)NC(=O)[C@@H](NC(=O)CNC(=O)[C@H](CCC(N)=O)NC(=O)C(C)(C)NC(=O)[C@@H](N)Cc1ccc(O)cc1)[C@@H](C)O)[C@@H](C)O)[C@@H](C)CC)C(=O)N[C@@H](CCC(=O)O)C(=O)N[C@@H](Cc1ccc(O)cc1)C(=O)N[C@@H](CC(C)C)C(=O)N[C@@H](CC(C)C)C(=O)N[C@@H](CCC(=O)O)C(=O)NCC(=O)NCC(=O)N1CCC[C@H]1C(=O)N[C@@H](CO)C(=O)N[C@@H](CO)C(=O)NCC(=O)N[C@@H](C)C(=O)N1CCC[C@H]1C(=O)N1CCC[C@H]1C(=O)N1CCC[C@H]1C(=O)N[C@@H](CO)C(N)=O [Example 8] | 0.0958 | 0.12 | 0.117 | 30.4 | 29.4 | 0.114
CC[C@H](C)[C@H](NC(=O)[C@H](Cc1ccccc1)NC(=O)[C@H](C)NC(=O)[C@H](Cc1c[nH]cn1)NC(=O)[C@H](CCC(N)=O)NC(=O)[C@H](C)NC(=O)[C@H](CCCCNC(=O)CC[C@H](NC(=O)CC[C@H](NC(=O)CCCCCCCCCCCCCCCCCCC(=O)O)C(=O)O)C(=O)O)NC(=O)[C@H](CCCCN)NC(=O)[C@H](CC(=O)O)NC(=O)[C@H](CC(C)C)NC(=O)[C@](C)(CC(C)C)NC(=O)[C@@H](NC(=O)[C@H](CO)NC(=O)[C@H](Cc1ccc(O)cc1)NC(=O)[C@H](CC(=O)O)NC(=O)[C@H](CO)NC(=O)[C@@H](NC(=O)[C@H](Cc1ccccc1)NC(=O)[C@@H](NC(=O)CNC(=O)[C@H](CCC(N)=O)NC(=O)C(C)(C)NC(=O)[C@@H](N)Cc1ccc(O)cc1)[C@@H](C)O)[C@@H](C)O)[C@@H](C)CC)C(=O)N[C@@H](CCC(=O)O)C(=O)N[C@@H](Cc1ccc(O)cc1)C(=O)N[C@@H](CC(C)C)C(=O)N[C@@H](CC(C)C)C(=O)N[C@@H](CCC(=O)O)C(=O)NCC(=O)NCC(=O)N1CCC[C@H]1C(=O)N[C@@H](CO)C(=O)N[C@@H](CO)C(=O)NCC(=O)N[C@@H](C)C(=O)N1CCC[C@H]1C(=O)N1CCC[C@H]1C(=O)N1CCC[C@H]1C(=O)N[C@@H](CO)C(N)=O [Example 9] (H-Y[Aib]QGTFTSDYSI[αMeL]LDKK([γGlu-γGlu-C20 diacid])AQHAFIEYLLEGGPSSGAPPPS-NH2; N-terminus assumed) | 0.126 | 0.139 | 0.0931 | 8.27 | 11.5 | 0.0522
CC[C@H](C)[C@H](NC(=O)[C@H](Cc1ccccc1)NC(=O)[C@H](C)NC(=O)C(C)(C)NC(=O)[C@H](CCC(N)=O)NC(=O)[C@H](C)NC(=O)[C@H](CCCCNC(=O)COCCOCCNC(=O)CC[C@H](NC(=O)CCCCCCCCCCCCCCCCCCC(=O)O)C(=O)O)NC(=O)[C@H](CCCCN)NC(=O)[C@H](CC(=O)O)NC(=O)[C@H](CC(C)C)NC(=O)[C@](C)(CC(C)C)NC(=O)[C@@H](NC(=O)[C@H](CO)NC(=O)[C@H](Cc1ccc(O)cc1)NC(=O)[C@H](CC(=O)O)NC(=O)[C@H](CO)NC(=O)[C@@H](NC(=O)[C@H](Cc1ccccc1)NC(=O)[C@@H](NC(=O)CNC(=O)[C@H](CCC(N)=O)NC(=O)C(C)(C)NC(=O)[C@@H](N)Cc1ccc(O)cc1)[C@@H](C)O)[C@@H](C)O)[C@@H](C)CC)C(=O)N[C@@H](CCC(=O)O)C(=O)N[C@@H](Cc1ccc(O)cc1)C(=O)N[C@@H](CC(C)C)C(=O)N[C@@H](CC(C)C)C(=O)N[C@@H](CCC(=O)O)C(=O)NC(C)(C)C(=O)NCC(=O)N1CCC[C@H]1C(=O)N[C@@H](CO)C(=O)N[C@@H](CO)C(=O)NC(C)(C)C(=O)N[C@@H](C)C(=O)N1CCC[C@H]1C(=O)N1CCC[C@H]1C(=O)N1CCC[C@H]1C(=O)N[C@@H](CO)C(N)=O [Example 14] (H-Y[Aib]QGTFTSDYSI[αMeL]LDKK([AEEA-γGlu-C20 diacid])AQ[Aib]AFIEYLLE[Aib]GPSS[Aib]APPPS-NH2; N-terminus assumed) | 0.035 | 0.0876 | 0.146 | 2.64 | 6.27 | 0.0356
CC[C@H](C)[C@H](NC(=O)[C@H](Cc1ccccc1)NC(=O)[C@H](C)NC(=O)C(C)(C)NC(=O)[C@H](CCC(N)=O)NC(=O)[C@H](C)NC(=O)[C@H](CCCCNC(=O)COCCOCCNC(=O)COCCOCCNC(=O)CC[C@H](NC(=O)CCCCCCCCCCCCCCCCCCC(=O)O)C(=O)O)NC(=O)[C@H](CCCCN)NC(=O)[C@H](CC(=O)O)NC(=O)[C@H](CC(C)C)NC(=O)[C@H](CC(C)C)NC(=O)[C@@H](NC(=O)[C@H](CO)NC(=O)[C@H](Cc1ccc(O)cc1)NC(=O)[C@H](CC(=O)O)NC(=O)[C@H](CO)NC(=O)[C@@H](NC(=O)[C@H](Cc1ccccc1)NC(=O)[C@@H](NC(=O)CNC(=O)[C@H](CCC(N)=O)NC(=O)C(C)(C)NC(=O)[C@@H](N)Cc1ccc(O)cc1)[C@@H](C)O)[C@@H](C)O)[C@@H](C)CC)C(=O)N[C@@H](CCC(=O)O)C(=O)N[C@@H](Cc1ccc(O)cc1)C(=O)N[C@@H](CC(C)C)C(=O)N[C@@H](CC(C)C)C(=O)N[C@@H](C)C(=O)NC(C)(C)C(=O)NCC(=O)N1CCC[C@H]1C(=O)N[C@@H](CO)C(=O)N[C@@H](CO)C(=O)NCC(=O)N[C@@H](C)C(=O)N1CCC[C@H]1C(=O)N1CCC[C@H]1C(=O)N1CCC[C@H]1C(=O)N[C@@H](CO)C(N)=O [Example 15] (H-Y[Aib]QGTFTSDYSILLDKK([AEEA-AEEA-γGlu-C20 diacid])AQ[Aib]AFIEYLLA[Aib]GPSSGAPPPS-NH2; N-terminus assumed) | 0.0972 | 0.131 | 0.253 | 4.56 | 5.8 | 0.0689
CC[C@H](C)[C@H](NC(=O)[C@H](Cc1ccccc1)NC(=O)[C@H](C)NC(=O)C(C)(C)NC(=O)[C@H](CCC(N)=O)NC(=O)[C@H](C)NC(=O)[C@H](CCCCNC(=O)COCCOCCNC(=O)COCCOCCNC(=O)CC[C@H](NC(=O)CCCCCCCCCCCCCCCCCCC(=O)O)C(=O)O)NC(=O)[C@H](CCCCN)NC(=O)[C@H](CC(=O)O)NC(=O)[C@H](CC(C)C)NC(=O)[C@H](CC(C)C)NC(=O)[C@@H](NC(=O)[C@H](CO)NC(=O)[C@H](Cc1ccc(O)cc1)NC(=O)[C@H](CC(=O)O)NC(=O)[C@H](CO)NC(=O)[C@@H](NC(=O)[C@H](Cc1ccccc1)NC(=O)[C@@H](NC(=O)CNC(=O)[C@H](CCC(N)=O)NC(=O)C(C)(C)NC(=O)[C@@H](N)Cc1ccc(O)cc1)[C@@H](C)O)[C@@H](C)O)[C@@H](C)CC)C(=O)N[C@@H](CCC(=O)O)C(=O)N[C@@H](Cc1ccc(O)cc1)C(=O)N[C@@H](CC(C)C)C(=O)N[C@@H](CC(C)C)C(=O)N[C@@H](CCC(=O)O)C(=O)NC(C)(C)C(=O)NCC(=O)N1CCC[C@H]1C(=O)N[C@@H](CO)C(=O)N[C@@H](CO)C(=O)NCC(=O)N[C@@H](C)C(=O)N1CCC[C@H]1C(=O)N1CCC[C@H]1C(=O)N1CCC[C@H]1C(=O)N[C@@H](CO)C(N)=O [Example 17] (H-Y[Aib]QGTFTSDYSILLDKK([AEEA-AEEA-γGlu-C20 diacid])AQ[Aib]AFIEYLLE[Aib]GPSSGAPPPS-NH2) | 0.0895 | 0.135 | 0.153 | 5.81 | 10.2 | 0.0439
